ChEMBL document CHEMBL5291721, “A preclinical secondary pharmacology resource illuminates target-adverse drug reaction associations of marketed drugs” (Nat Commun, 2023)

What was measured:
[1] = target: Neuronal acetylcholine receptor subunit alpha-4 (Homo sapiens, UniProt P43681)
Adenosine receptor A1 [2] = target: T1, Adenosine receptor A1 (Homo sapiens, UniProt P30542)
T1 sequence (P30542 whole entry): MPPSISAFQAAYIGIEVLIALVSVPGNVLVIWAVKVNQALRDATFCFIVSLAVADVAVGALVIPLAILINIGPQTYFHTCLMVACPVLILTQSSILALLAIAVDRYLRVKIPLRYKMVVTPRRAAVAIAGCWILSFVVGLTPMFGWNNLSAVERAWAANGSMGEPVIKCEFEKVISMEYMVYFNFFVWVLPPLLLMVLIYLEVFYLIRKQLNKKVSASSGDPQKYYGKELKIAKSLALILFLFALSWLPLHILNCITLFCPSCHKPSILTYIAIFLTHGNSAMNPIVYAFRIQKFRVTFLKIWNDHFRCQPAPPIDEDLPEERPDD

Mu-type opioid receptor = Mu-type opioid receptor (Homo sapiens, UniProt P35372)
[3] = target: T2, Type-1 angiotensin II receptor (Homo sapiens, UniProt P30556)
T2 sequence (P30556 whole entry): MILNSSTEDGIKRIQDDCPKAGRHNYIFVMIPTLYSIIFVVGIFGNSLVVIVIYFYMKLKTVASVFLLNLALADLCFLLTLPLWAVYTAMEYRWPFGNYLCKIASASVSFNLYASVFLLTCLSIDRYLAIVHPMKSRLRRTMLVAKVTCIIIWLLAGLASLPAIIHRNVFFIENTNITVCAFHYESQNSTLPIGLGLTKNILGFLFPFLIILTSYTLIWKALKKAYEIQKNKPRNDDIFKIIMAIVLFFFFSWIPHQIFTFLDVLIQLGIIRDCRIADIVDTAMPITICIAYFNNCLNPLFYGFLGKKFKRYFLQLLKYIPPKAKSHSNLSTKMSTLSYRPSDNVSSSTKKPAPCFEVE

[4] = target: Voltage-dependent L-type calcium channel subunit alpha-1C (Rattus norvegicus, UniProt P22002); format: functional
Endothelin-1 receptor = target: T3, Endothelin-1 receptor (Homo sapiens, UniProt P25101)
T3 sequence (P25101 whole entry): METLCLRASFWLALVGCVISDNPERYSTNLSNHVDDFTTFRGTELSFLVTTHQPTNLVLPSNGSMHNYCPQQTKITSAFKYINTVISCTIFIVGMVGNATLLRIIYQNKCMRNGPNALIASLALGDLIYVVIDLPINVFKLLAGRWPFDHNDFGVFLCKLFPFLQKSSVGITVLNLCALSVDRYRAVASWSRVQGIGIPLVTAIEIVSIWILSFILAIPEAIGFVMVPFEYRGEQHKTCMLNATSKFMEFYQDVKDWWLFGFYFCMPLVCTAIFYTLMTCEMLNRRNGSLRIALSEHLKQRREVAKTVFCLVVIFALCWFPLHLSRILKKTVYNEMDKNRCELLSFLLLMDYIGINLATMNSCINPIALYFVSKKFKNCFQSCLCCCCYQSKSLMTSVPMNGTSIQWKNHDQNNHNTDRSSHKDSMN

Adenosine receptor A1 [5] = target: T1, Adenosine receptor A1; remark: listed apart in the source
[6] = target: 5-hydroxytryptamine receptor 2A (Homo sapiens, UniProt P28223); format: functional, cell-based
[7] = target: T4, 5-hydroxytryptamine receptor 1A (Homo sapiens, UniProt P08908); format: functional, cell-based
T4 sequence (P08908 whole entry): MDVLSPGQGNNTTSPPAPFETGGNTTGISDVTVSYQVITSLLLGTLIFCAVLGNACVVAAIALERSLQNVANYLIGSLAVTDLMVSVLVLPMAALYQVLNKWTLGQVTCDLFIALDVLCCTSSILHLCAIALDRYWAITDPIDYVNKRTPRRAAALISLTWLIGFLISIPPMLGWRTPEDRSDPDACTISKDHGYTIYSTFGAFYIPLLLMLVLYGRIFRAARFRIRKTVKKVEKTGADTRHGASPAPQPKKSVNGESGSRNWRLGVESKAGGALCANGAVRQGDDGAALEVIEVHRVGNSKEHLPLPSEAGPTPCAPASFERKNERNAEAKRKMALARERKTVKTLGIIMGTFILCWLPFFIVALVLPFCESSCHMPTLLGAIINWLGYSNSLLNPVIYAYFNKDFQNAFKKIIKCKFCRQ

[8] = target: Beta-2 adrenergic receptor (Homo sapiens, UniProt P07550); format: functional, cell-based
Cannabinoid receptor 1 = Cannabinoid receptor 1 (Homo sapiens, UniProt P21554)
Melanocortin receptor 4 = Melanocortin receptor 4 (Homo sapiens, UniProt P32245)
Also: assay procedure not described here.

Sequence of Neuronal acetylcholine receptor subunit alpha-4 (P43681 whole entry): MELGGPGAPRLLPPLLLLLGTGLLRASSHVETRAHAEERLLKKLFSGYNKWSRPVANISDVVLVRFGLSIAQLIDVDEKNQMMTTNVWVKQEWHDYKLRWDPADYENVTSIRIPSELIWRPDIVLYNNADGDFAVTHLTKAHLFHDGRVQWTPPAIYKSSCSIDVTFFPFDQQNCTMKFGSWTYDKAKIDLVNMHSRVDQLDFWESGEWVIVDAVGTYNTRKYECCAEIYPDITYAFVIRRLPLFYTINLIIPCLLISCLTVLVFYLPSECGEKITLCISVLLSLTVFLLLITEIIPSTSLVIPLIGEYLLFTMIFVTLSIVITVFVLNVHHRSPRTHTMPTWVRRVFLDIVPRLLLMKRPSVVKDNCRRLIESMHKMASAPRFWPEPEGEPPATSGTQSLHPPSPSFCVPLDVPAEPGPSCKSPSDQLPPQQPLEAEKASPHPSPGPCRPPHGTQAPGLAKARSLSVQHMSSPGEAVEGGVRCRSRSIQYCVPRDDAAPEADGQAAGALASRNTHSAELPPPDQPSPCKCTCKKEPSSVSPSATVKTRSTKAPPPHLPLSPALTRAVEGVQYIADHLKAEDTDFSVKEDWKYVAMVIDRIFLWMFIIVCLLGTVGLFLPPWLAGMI
Sequence of Melanocortin receptor 4 (P32245 whole entry): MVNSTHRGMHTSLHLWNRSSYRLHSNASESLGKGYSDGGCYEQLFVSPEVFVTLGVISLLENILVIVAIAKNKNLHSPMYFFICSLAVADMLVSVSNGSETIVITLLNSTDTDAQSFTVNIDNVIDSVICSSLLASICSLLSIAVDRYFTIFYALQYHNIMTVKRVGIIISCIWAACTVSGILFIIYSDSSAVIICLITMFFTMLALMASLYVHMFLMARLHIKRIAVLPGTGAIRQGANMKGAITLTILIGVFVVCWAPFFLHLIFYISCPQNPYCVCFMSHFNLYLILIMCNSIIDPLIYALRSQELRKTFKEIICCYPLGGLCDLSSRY
Sequence of Beta-2 adrenergic receptor (P07550 whole entry): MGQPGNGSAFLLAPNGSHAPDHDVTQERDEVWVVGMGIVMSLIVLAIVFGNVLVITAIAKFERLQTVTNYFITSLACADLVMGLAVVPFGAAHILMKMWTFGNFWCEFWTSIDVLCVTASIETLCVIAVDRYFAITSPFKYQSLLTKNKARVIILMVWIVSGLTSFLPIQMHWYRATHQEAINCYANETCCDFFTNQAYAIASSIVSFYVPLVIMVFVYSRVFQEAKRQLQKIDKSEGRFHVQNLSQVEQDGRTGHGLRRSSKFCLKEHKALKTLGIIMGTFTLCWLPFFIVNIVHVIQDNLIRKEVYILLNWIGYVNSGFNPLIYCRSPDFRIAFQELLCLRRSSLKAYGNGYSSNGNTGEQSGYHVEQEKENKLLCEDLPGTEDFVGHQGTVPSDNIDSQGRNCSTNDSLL
Sequence of Mu-type opioid receptor (P35372 whole entry): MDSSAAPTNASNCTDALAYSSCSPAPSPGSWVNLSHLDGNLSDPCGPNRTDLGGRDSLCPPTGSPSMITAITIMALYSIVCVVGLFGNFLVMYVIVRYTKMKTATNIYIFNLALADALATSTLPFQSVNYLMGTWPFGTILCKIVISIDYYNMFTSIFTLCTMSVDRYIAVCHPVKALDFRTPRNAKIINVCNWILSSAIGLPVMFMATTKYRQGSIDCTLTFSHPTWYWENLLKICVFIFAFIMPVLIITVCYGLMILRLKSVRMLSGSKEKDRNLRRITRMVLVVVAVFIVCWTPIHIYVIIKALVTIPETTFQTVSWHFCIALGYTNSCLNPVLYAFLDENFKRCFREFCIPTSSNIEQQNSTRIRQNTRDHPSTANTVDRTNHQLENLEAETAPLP
Sequence of 5-hydroxytryptamine receptor 2A (P28223 whole entry): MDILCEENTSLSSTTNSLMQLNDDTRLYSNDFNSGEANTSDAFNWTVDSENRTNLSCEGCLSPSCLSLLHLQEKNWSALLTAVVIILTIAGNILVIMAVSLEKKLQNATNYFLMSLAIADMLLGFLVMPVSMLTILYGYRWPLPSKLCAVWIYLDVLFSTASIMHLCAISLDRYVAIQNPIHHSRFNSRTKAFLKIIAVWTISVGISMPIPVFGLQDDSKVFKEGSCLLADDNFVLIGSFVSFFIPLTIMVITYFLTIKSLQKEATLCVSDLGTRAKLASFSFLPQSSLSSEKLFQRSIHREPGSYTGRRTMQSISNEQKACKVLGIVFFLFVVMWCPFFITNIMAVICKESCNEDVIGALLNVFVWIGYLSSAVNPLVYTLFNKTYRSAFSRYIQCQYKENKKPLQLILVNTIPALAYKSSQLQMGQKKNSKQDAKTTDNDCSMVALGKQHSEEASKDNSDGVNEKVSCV
Sequence of Voltage-dependent L-type calcium channel subunit alpha-1C (P22002 whole entry): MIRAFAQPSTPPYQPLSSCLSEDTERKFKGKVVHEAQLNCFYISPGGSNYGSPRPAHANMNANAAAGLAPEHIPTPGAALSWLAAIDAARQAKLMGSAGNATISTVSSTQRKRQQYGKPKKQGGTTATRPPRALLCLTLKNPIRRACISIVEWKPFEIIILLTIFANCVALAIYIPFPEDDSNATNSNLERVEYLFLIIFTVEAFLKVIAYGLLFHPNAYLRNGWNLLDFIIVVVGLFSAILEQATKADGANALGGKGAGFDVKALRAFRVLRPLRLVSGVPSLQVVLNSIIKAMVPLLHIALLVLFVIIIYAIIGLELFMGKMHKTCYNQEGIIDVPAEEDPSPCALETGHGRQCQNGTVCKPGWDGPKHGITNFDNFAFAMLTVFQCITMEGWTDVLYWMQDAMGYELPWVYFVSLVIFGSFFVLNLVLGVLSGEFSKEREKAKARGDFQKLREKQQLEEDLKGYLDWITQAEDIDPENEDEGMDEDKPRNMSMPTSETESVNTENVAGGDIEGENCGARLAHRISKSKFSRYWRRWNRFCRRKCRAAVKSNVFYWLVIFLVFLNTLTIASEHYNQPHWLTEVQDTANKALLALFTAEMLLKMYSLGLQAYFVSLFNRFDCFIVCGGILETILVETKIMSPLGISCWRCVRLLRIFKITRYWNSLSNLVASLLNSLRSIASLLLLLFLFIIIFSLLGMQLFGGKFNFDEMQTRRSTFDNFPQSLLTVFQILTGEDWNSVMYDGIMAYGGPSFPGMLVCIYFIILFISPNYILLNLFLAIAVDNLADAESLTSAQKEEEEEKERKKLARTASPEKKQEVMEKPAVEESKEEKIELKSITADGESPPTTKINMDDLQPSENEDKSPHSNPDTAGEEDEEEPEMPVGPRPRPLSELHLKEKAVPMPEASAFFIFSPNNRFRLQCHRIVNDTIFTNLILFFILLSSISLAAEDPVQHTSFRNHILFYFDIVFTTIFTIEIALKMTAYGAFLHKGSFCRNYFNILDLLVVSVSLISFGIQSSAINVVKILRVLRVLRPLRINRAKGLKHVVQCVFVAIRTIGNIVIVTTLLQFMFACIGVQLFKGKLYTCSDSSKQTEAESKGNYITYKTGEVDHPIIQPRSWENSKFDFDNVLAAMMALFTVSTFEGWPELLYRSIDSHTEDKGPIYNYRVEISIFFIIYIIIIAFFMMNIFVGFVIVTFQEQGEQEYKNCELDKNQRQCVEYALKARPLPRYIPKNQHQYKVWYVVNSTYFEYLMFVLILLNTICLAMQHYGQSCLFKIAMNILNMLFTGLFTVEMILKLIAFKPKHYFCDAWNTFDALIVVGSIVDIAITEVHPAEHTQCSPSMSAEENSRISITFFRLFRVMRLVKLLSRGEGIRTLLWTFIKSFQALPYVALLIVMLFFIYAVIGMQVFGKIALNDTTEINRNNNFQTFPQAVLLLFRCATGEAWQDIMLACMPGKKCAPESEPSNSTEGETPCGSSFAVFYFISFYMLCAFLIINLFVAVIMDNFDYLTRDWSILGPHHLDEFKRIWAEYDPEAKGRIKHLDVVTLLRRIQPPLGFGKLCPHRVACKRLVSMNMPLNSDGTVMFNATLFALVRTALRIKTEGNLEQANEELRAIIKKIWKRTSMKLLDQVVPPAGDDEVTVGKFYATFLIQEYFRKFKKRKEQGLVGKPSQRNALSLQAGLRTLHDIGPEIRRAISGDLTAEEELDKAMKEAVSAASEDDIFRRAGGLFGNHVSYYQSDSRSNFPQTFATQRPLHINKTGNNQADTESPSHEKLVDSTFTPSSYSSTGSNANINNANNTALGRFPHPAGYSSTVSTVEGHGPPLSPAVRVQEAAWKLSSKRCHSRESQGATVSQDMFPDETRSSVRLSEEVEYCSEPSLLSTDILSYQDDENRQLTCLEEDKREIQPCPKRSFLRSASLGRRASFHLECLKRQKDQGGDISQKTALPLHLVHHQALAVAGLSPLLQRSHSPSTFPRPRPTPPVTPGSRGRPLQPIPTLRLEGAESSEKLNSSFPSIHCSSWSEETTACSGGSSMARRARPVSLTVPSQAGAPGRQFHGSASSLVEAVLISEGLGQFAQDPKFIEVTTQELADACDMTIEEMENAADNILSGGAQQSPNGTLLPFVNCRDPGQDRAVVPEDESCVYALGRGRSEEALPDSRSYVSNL
Sequence of Cannabinoid receptor 1 (P21554 whole entry): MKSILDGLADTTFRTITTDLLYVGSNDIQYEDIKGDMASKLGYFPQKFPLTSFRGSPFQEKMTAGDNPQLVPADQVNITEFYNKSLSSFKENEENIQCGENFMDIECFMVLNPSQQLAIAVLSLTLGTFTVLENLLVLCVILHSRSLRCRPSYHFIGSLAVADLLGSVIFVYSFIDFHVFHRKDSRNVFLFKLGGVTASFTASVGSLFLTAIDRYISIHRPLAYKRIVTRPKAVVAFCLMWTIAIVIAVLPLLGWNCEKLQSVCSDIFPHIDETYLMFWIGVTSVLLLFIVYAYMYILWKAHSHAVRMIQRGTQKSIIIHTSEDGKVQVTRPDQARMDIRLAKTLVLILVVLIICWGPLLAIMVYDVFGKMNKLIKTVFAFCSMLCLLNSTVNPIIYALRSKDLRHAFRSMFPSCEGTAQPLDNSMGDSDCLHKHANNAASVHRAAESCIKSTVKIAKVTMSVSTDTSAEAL

Structure (SMILES)	AC50 [1] [µM]	AC50 (Adenosine receptor A1 [2]) [µM]	AC50 (Mu-type opioid receptor) [µM]	AC50 [3] [µM]	AC50 [4] [µM]	AC50 (Endothelin-1 receptor) [µM]	AC50 (Adenosine receptor A1 [5]) [µM]	AC50 [6] [µM]	AC50 [7] [µM]	AC50 [8] [µM]	AC50 (Cannabinoid receptor 1) [µM]	AC50 (Melanocortin receptor 4) [µM]
O=C(O)c1cccc(-c2noc(-c3ccccc3F)n2)c1	> 10	> 30	> 30	–	–	–	–	–	–	–	–	–
NS(=O)(=O)c1cc(-c2nnn[nH]2)c(NCc2cccs2)cc1Cl [AZOSEMIDE]	> 30	–	–	> 30	> 30	> 30	> 30	> 30	–	–	–	–
CCS(=O)(=O)N1CC(CC#N)(n2cc(-c3ncnc4[nH]ccc34)cn2)C1 [BARICITINIB]	–	> 30	–	–	–	–	–	–	–	–	–	–
C[N+](C)(C)CC(=O)O [BETAINE]	> 30	–	–	> 30	> 30	> 30	> 30	> 30	> 30	–	–	–
CCCC(=O)N1CCCN(c2nc(N)c3cc(OC)c(OC)cc3n2)CC1 [BUNAZOSIN]	> 30	–	–	> 30	–	> 30	> 30	> 30	> 30	> 30	–	–
C[N+](C)(C)CCOC(N)=O [CARBAMOYLCHOLINE]	> 10	–	> 30	> 10	> 10	–	> 10	–	> 30	> 30	> 10	> 10
N[C@@H](CSCC(=O)O)C(=O)O [CARBOCYSTEINE]	> 30	–	–	> 30	> 30	> 30	> 30	> 30	> 30	–	–	–
NCc1ccccc1CC(=O)N[C@@H]1C(=O)N2C(C(=O)O)=C(CSc3nnnn3CC(=O)O)CS[C@H]12 [CEFORANIDE]	–	> 30	–	–	–	–	–	–	–	–	–	–
CC(C)(N)Cc1ccc(Cl)cc1 [CHLORPHENTERMINE]	10	–	> 30	> 30	> 10	> 30	> 30	> 30	> 10	> 30	> 10	> 30
CN(C)[C@@H]1C(O)=C(C(N)=O)C(=O)[C@@]2(O)C(O)=C3C(=O)c4c(O)ccc(Cl)c4[C@@H](O)[C@H]3C[C@@H]12 [DEMECLOCYCLINE]	> 10	–	> 30	> 10	> 10	–	> 10	> 10	> 10	–	> 10	> 10
NS(=O)(=O)c1cc(Cl)c(Cl)c(S(N)(=O)=O)c1 [DICHLORPHENAMIDE]	> 10	–	> 30	> 10	> 10	–	> 10	> 10	> 10	> 30	> 10	> 10
O=C(Nc1ccccc1)OCC(CN1CCCCC1)OC(=O)Nc1ccccc1 (stereo unspecified) [DIPERODON]	–	–	1.8	> 30	–	> 30	> 30	> 30	> 10	> 30	> 10	> 30
C=C1C[C@@H]2[C@H](CC[C@]3(C)C(=O)CC[C@@H]23)[C@@]2(C)C=CC(=O)C=C12 [EXEMESTANE]	> 10	–	> 30	> 30	> 10	> 30	> 30	> 30	> 10	> 30	> 10	> 30
CC(C(O)c1ccc(O)cc1)N1CCC(Cc2ccccc2)CC1 (stereo unspecified) [IFENPRODIL]	> 30	–	–	> 30	> 30	> 30	> 30	9.6	–	> 30	–	–
CC(=O)N(CC(O)CO)c1c(I)c(C(=O)NCC(O)CO)c(I)c(C(=O)NCC(O)CO)c1I (stereo unspecified) [IOHEXOL]	> 10	–	> 30	> 30	> 10	–	> 30	> 30	> 10	–	–	> 30
CN(CCCN1c2ccccc2CCc2ccccc21)CC(=O)c1ccc(Cl)cc1 [LOFEPRAMINE]	> 30	–	–	> 30	2.4	> 30	> 30	6.6	–	> 30	6.9	–
CCOC(=O)CC(SP(=S)(OC)OC)C(=O)OCC (stereo unspecified) [MALATHION]	–	11.5	–	–	–	–	–	–	–	–	–	–
CC(=O)O[C@]1(C(C)=O)CC[C@H]2[C@@H]3C[C@H](C)C4=CC(=O)CC[C@]4(C)[C@H]3CC[C@@]21C [MEDROXYPROGESTERONE ACETATE]	> 30	> 30	–	> 30	–	> 30	> 30	–	–	–	–	–
CN(C/C=C/c1ccccc1)Cc1cccc2ccccc12 [NAFTIFINE]	> 10	–	> 30	> 30	> 10	–	> 30	–	> 10	> 30	9.87	> 30
CC(C)NCC1CCc2cc(CO)c([N+](=O)[O-])cc2N1 (stereo unspecified) [OXAMNIQUINE]	> 10	–	> 30	> 10	> 10	–	> 10	> 30	> 30	–	> 10	> 10
CN(C)CCCN1c2ccccc2Sc2ccccc21 [PROMAZINE]	–	–	6.5	> 10	> 10	> 30	> 30	–	> 10	> 30	> 10	> 30
O=C(O)CCn1c2c(c3ccccc31)C[C@H](NS(=O)(=O)c1ccc(F)cc1)CC2 [RAMATROBAN]	> 30	> 30	> 30	> 30	> 10	> 10	> 30	> 10	> 10	–	> 10	> 30
O=P(O)(O)C(O)(Cc1cccnc1)P(=O)(O)O [RISEDRONIC ACID]	> 30	–	> 30	> 30	> 30	> 30	> 30	–	> 10	–	> 30	> 30
O=C1CCC(N2C(=O)c3ccccc3C2=O)C(=O)N1 (stereo unspecified) [THALIDOMIDE]	–	–	> 30	> 30	> 10	> 30	> 30	–	> 10	> 30	> 10	> 30
COc1cc(NCc2ccc3nc(N)nc(N)c3c2C)cc(OC)c1OC [TRIMETREXATE]	–	> 30	–	–	–	–	–	–	–	–	–	–
CC(=O)N[C@H]1[C@H]([C@H](O)[C@H](O)CO)OC(C(=O)O)=C[C@@H]1N=C(N)N [ZANAMIVIR]	> 30	–	> 30	> 30	> 30	–	> 30	> 30	> 30	–	> 30	> 30
